Values of other authors in patent publication US20040048261A1, “Invertebrate choline transporter nucleic acids, polypeptides and uses thereof” (priority 2002, published 2004).

Columns and labels:
[1] = molecular target: low-affinity, sodium-independent system for choline uptake; conditions: synaptosome studies, high choline concentrations, read-out: inhibition constant (Ki)
[2] = molecular target: high-affinity, sodium-dependent system for choline uptake; conditions: synaptosome studies, low choline concentrations

In the case of `C[N+]1(C)CCOC(O)(c2ccc(-c3ccc(C4(O)C[N+](C)(C)CCO4)cc3)cc2)C1` (centres unmarked) [HC-3, hemicholinium-3], the Ki [1] is listed as about 50 µM and the Ki [2] is listed as 0.01 to 0.1 µM.
